Data published in patent publication US20210040041A1, “QUINOLINE DERIVATIVES AND PREPARATION METHODS AND USES THEREOF” (DONGGUAN HEC PESTICIDES R&D CO., LTD., priority 2018, published 2021).

Columns and labels:
Assay type in all cases: in vivo
Brown rice planthopper = experiment: Test examples 1: spraying leaves and stems, rice seedlings, Brown rice planthopper; conditions: 500 mg/L, after 72 hours; read-out: mortality rate to Brown rice planthopper
Procedure: (§1) A certain amount of compound (0.0001 g) was weighed by using an analytical balance, and prepared to a mother liquid (1) with N,N-dimethylformamide containing 1% Tween-80 emulsifier, and then the mother liquid was diluted with distilled water for standby.
Spraying Leaves and Stems: the test target was Brown rice planthopper. Rice seedlings inoculated with Brown rice planthopper were spayed under Potter spray tower, and then the Brown rice planthopper was placed and cultured in an observation room at 24-27° C. The results were investigated after 72 hours. The test concentration was 500 mg/L.

Diamondback moth [1] = experiment: Test examples 1: leaf dipping method, cabbage leaves, Diamondback moth; conditions: Plutella xylostella, foliar, 72 h; 200 mg/L, third instar, after 3 days; read-out: mortality rate to Diamondback moth
Procedure: as §1
(§2) Leaf dipping method: the test targets were Diamondback moth, Tobacco Cutworm and Beet Armyworm. An appropriate amount of cabbage leaves were infiltrated in the prepared liquid and dried in the shade naturally, and then placed in a culture dish with filter paper; worms in the third instar were inoculated to the leaves, 10 heads per dish, and the dishes were cultured in an observation room at 24-27° C. The results were investigated after 3 days. […] The test concentration was 200 mg/L or 100 mg/L.

[2] = test system: Frankliniella occidentalis; experiment: Test examples 2: spraying of cowpea leaf discs, Frankliniella occidentalis; conditions: foliar, 24 h, after 1 day, read-out: The mortality rate (%) of the compound to Frankliniella occidentalis
Procedure: (§3) A certain amount of compound (0.0001 g) was weighed by using an analytical balance, and prepared to a mother liquid (1%) with N, N-dimethylformamide containing 1% Tween-80 emulsifier, and then the mother liquid was diluted with distilled water for standby.
Spraying: cowpea leaves growing uniformity were punched with a punching bear to make leaf discs, leaf discs were placed onto degreased cotton blocks in a dish, two leaf discs per dish, and water was added into the dish and it was flush with the leaf discs, and the dish was for standby. Frankliniella occidentalis in the 2-3rd instar were inoculated to the ready leaf discs, more than 15 per disc. Which were spayed under Potter spray tower at a dose of 0.5 mL per treatment. The blank control was treated first, and then the above operations were repeated in the order of the test dose from low to high, with 2 repeats per treatment. After treatment, the samples were placed in the observation room, and the results were investigated 1 day later. […] The test concentrations were 20 mg/L, 10 mg/L, 5.0 mg/L, 2.5 mg/L, 1.25 mg/L, 0.625 mg/L.

Armyworm [3] = experiment: Test examples 1: leaf dipping method, corn leaves, Armyworm; conditions: Mythimna separata, foliar, 72 h; 200 mg/L, third instar larvae, after 3 days; read-out: mortality rate to Armyworm
Procedure: as §1
Leaf dipping method: the test target was Armyworm. An appropriate amount of corn leaves were infiltrated in the prepared liquid and dried in the shade naturally, and then placed in a culture dish with filter paper; armyworm larvae in the third instar were inoculated to the corn leaves, 10 heads per dish, and the dishes were cultured in an observation room at 24-27° C. The results were investigated after 3 days. […] The test concentration was 200 mg/L.

Diamondback moth [4] = experiment: Test examples 2: leaf dipping method, Diamondback moth; conditions: Plutella xylostella, foliar, 72 h, after 3 days, read-out: The mortality rate (%) of the compound to Diamondback moth
Procedure: as §3
(§4) Leaf dipping method: an appropriate amount of corn leaves/cabbage/cowpea were infiltrated in the prepared liquid and dried in the shade naturally, and then placed in a culture dish with filter paper; armyworm/Diamondback moth/Beet Armyworm larvae in the 2-3rd instar were inoculated to the corn leaves, 10 heads per dish, and the dishes were cultured in an observation room at 24-27° C. The results were investigated after 3 days. […] The test concentrations were 50 mg/L, 25 mg/L, 12.5 mg/L, 6.25 mg/L, 3.13 mg/L, 1.56 mg/L.

Beet Armyworm [5] = experiment: Test examples 1: leaf dipping method, cabbage leaves, Beet Armyworm; conditions: Spodoptera exigua, foliar, 72 h; 100 mg/L, third instar, after 3 days; read-out: mortality rate to Beet Armyworm
Procedure: as §1, §2

Aphis medicaginis = experiment: Test examples 1: leaves dish spraying, Vicia faba leaves, Aphis medicaginis; conditions: 500 mg/L, after 48 hours, read-out: mortality rate to Aphis medicaginis
Procedure: as §1
Leaves Dish Spraying: the test targets were tetranychuscinnabarinus and Aphis craccivora Koch. Vicia faba leaves inoculated with Carmine Spider Mite and Aphis medicaginis were spayed under Potter spray tower, and then the Carmine Spider Mite was placed and cultured in anobservation room at 24-27° C.; the Aphis medicaginis was placed and cultured in an observation room at 20-22° C. The results were investigated after 48 hours. […] The test concentration was 500 mg/L.

Beet Armyworm [6] = experiment: Test examples 2: leaf dipping method, Beet Armyworm; conditions: Spodoptera exigua, foliar, 72 h, after 3 days, read-out: The mortality rate (%) of the compound to Beet Armyworm
Procedure: as §3, §4

Tobacco Cutworm = experiment: Test examples 1: leaf dipping method, cabbage leaves, Tobacco Cutworm; conditions: foliar, 72 h; 100 mg/L, third instar, after 3 days; read-out: mortality rate to Tobacco Cutworm
Procedure: as §1, §2

Armyworm [7] = experiment: Test examples 2: leaf dipping method, Armyworm; conditions: Mythimna separata, foliar, 72 h, after 3 days, read-out: The mortality rate (%) of the compound to Armyworm
Procedure: as §3, §4

Diamondback moth [8] = experiment: Test examples 3: leaf dipping method, cabbage, Diamondback moth; conditions: for mortality at 12.5 µg/mL / mortality at 25 µg/mL / mortality at 50 µg/mL: Plutella xylostella, foliar, 72 h, after 3 days, read-out: The mortality rate (%) to Diamondback moth; for mortality at 12.5 µg/mL: 12.5 mg/L; for mortality at 25 µg/mL: 25 mg/L; for mortality at 50 µg/mL: 50 mg/L
Procedure: (§5) A certain amount of compound (0.0001 g) was weighed by using an analytical balance, and prepared to a mother liquid (1) with N,N-dimethylformamide containing 1% Tween-80 emulsifier, and then the other liquid was diluted with distilled water or standby.
as §4, with “cabbage was” for “corn leaves/cabbage/cowpea were”, “Armyworm/Diamondback moth” for “armyworm/Diamondback moth/Beet Armyworm”, “inoculated,” for “inoculated to the corn leaves,”

Armyworm [9] = experiment: Test examples 3: leaf dipping method, cabbage, Armyworm
Procedure: as §5
as §4, with “cabbage was” for “corn leaves/cabbage/cowpea were”, “Armyworm/Diamondback moth” for “armyworm/Diamondback moth/Beet Armyworm”, “inoculated,” for “inoculated to the corn leaves,”

With CCc1nc2cc(C)c(Oc3ccc(OC(F)(F)F)cc3)cc2c(OC(=O)OCCOC)c1C [Example 1, 2-ethyl-3,7-dimethyl-6-(4-(trifluoromethoxy)phenoxy)quinolin-4-yl (2-methoxyethyl)carbonate] the mortality at 500 µg/mL (Brown rice planthopper) was 100%, the mortality at 200 µg/mL (Diamondback moth [1]) was 100% and the mortality at 5 µg/mL ([2]; 5 mg/L) was 100%. For the same molecule, the mortality at 10 µg/mL ([2]; 10 mg/L) was 100%, the mortality at 20 µg/mL ([2]; 20 mg/L) was 100% and the mortality at 200 µg/mL (Armyworm [3]) was 100%. It also gave a mortality at 12.5 µg/mL (Diamondback moth [4]; 12.5 mg/L) of 100%, a mortality at 25 µg/mL (Diamondback moth [4]; 25 mg/L) of 100% and a mortality at 50 µg/mL (Diamondback moth [4]; 50 mg/L) of 100%. The mortality at 100 µg/mL (Beet Armyworm [5]) was 100%, the mortality at 500 µg/mL (Aphis medicaginis) was 100% and the mortality at 12.5 µg/mL (Beet Armyworm [6]; 12.5 mg/L) was 90%. For the same molecule, the mortality at 25 µg/mL (Beet Armyworm [6]; 25 mg/L) was 100%, the mortality at 50 µg/mL (Beet Armyworm [6]; 50 mg/L) was 100% and the mortality at 100 µg/mL (Tobacco Cutworm) was 100%. It also gave a mortality at 12.5 µg/mL (Armyworm [7]; 12.5 mg/L) of 100%, a mortality at 25 µg/mL (Armyworm [7]; 25 mg/L) of 100% and a mortality at 50 µg/mL (Armyworm [7]; 50 mg/L) of 100%.
For CCc1nc2cc(C)c(Oc3ccc(OC(F)(F)F)cc3)c(C)c2c(O)c1C [compound (42), 2-ethyl-3,5,7-trimethyl-6-(4-(trifluoromethoxy)phenoxy)quinolin-4-ol], the mortality at 12.5 µg/mL (Diamondback moth [8]) was 100%, the mortality at 25 µg/mL (Diamondback moth [8]) was 100% and the mortality at 50 µg/mL (Diamondback moth [8]) was 100%. The “control effect on Diamondback moth” value (Diamondback moth [8]; in words, different doses) was “significant control effect” and the “control effect on Armyworm” value (Armyworm [9]; in words, different doses) was “significant control effect”.
CCc1nc2cc(C)c(Oc3ccc(OC(F)(F)F)cc3)cc2c(O)c1C [compound NO. 119, reference compound] was tested, and the mortality at 12.5 µg/mL (Diamondback moth [8]) was 70%, the mortality at 25 µg/mL (Diamondback moth [8]) was 90% and the mortality at 50 µg/mL (Diamondback moth [8]) was 100%. It also gave a mortality at 12.5 µg/mL (Armyworm [9]; Mythimna separata, foliar, 72 h, 12.5 mg/L, after 3 days, read-out: The mortality rate (%) to Armyworm) of 10%, a mortality at 25 µg/mL (Armyworm [9]; Mythimna separata, foliar, 72 h, 25 mg/L, after 3 days, read-out: The mortality rate (%) to Armyworm) of 50% and a mortality at 50 µg/mL (Armyworm [9]; Mythimna separata, foliar, 72 h, 50 mg/L, after 3 days, read-out: The mortality rate (%) to Armyworm) of 60%.
